Entries after “also recorded” stand apart in the source; their conditions may differ.
Assays:
human neutrophils = assay: Cell tracking assay (neutrophil locomotion); type: cell-based; conditions: uniform concentration
Procedure: Neutrophils were obtained as described by Chettibi et al. [1993]. Briefly, whole blood was mixed with 1:10 v/v of 5% dextran and allowed to sediment at 37° C. for 1 hour. The leucocyte rich plasma was layered over Nycoprep 1.077 and centrifuged at 750 g for 15 minutes. Erythrocytes in the resulting pellet were removed by hypotonic lysis and neutrophils were washed twice with balanced salt solution (BSS). The cells were checked for viability by trypan blue exclusion (generally greater than 96% viable).
Automated cell-tracking migration chambers were made as previously described [Chettibi et al., 1993] and placed on the stage of an inverted phase-contrast microscope within a temperature controlled (37° C.) transparent box and locomotion observed by means of a video camera connected to a monochrome monitor and also to an Acorn A5000 computer with a Watford video digitiser programmed to capture and analyze one frame every 5 seconds. Data was obtained from a maximum of 80 selected cells and used to calculate instantaneous speed, the 2-dimensional diffusion coefficient and the locomotion persistence time, using the described procedure to eliminate the contribution of systematic drift [Chettibi et al., 1994].

[1] = tested on: fMLP-induced chemotaxis of human neutrophils; assay: Chemotaxis assay (modified Boyden chamber); type: cell-based; conditions: for chemotactic activity of the substance itself: Boyden chamber; for inhibition of chemotaxis to fMLP: substance in upper chamber, fMLP in lower chamber
Procedure: Filters (Sartorius membrane filter 3 μm pore) were cut and glued to a modified iml syringe barrel. 300 μl of 2×10^6/ml neutrophils were added to 300 μl antagonist and 200 μl of the suspension was added to the upper chamber (syringe barrel). The lower chamber (a 5 ml beaker), contained 3.6 ml of agonist. After 45 minutes, the cells were fixed in 70% ethanol for 5 minutes. This procedure also removes the filter from the syringe barrel by dissolving the glue. The filters were placed in a multi-well dish and treated as follows: distilled water for 2 minutes, Harris haematoxylin 1 minute, distilled water 1 min, Scotts Tap water (1:1 0.7% sodium bicarbonate:4% Magnesium sulphate (v/v) for 5 minutes, 70% ethanol 3 mins, 95% ethanol 3 minutes and 80%:20% ethanol:butanol (v/v) 5 minutes. The filters were cleared in xylene for 5 minutes, mounted in DEPEX and examined under bright field illumination with a 40× objective. Five randomly selected fields were counted for each filter.

[2] = tested on: Human umbilical vein endothelial cells (HUVEC); assay: Scratch wound assay (endothelial sheet wound closure); type: cell-based
Procedure: Scratch wound assay: Human umbilical vein endothelial cells (HUVEC) were grown to confluency in multiwell dishes (Corning) and a scratch made across the diameter of each well with a sterile pipette tip. The resulting wound (approx. 1 mm) was then measured before the addition of Tβ4 or Tβ4so and at 45 min intervals.

[3] = tested on: carrageenan-induced footpad swelling; assay: Carrageenan induced oedema test; type: in vivo, BALB/c mice; conditions: for reduction of carrageenan-induced oedema: 800 ng doses
Procedure: Induction of Inflammatory Response to Carrageenin: Groups of mice were injected subcutaneously in one hind paw with 300 μg carrageenin mixed the thymosin β4, native or sulphoxide in a final volume of 50 μl. Control animals were injected with the same volume of saline. Footpad swelling was measured using a spring-dial calliper, and expressed as the difference in swelling between the carrageenin-injected paw and the uninjected, contralateral paw. The animals were injected intraperitoneally (i.p.) With the same dose of thymosin β4, native or sulphoxide and footpad measurements made at 6, 24, 48 and 72 hours.

G-actin = conditions: high salt conditions; cited from earlier work

| Substance | dispersive locomotion of neutrophils (human neutrophils) | chemotactic activity of the substance itself [1] | potency of inhibition of chemotaxis relative to native Tβ4 ([1]; oxidised versus native peptide) | inhibition of chemotaxis to fMLP [1] | wound healing (closure rate of scratch on endothelial monolayer) [2] | potency in wound closure relative to native peptide ([2]; oxidised versus native peptide) | suppression of footpad swelling ([3]; 10 ng dose) | suppression of footpad swelling ([3]; 100 ng dose) | reduction of carrageenan-induced oedema [3] | suppression of footpad swelling ([3]; administration 30 minutes prior to, during and 6 hours after carrageenan, evident after 6 h, sustained up to 24 hours) | concentration needed to inhibit actin polymerisation relative to thymosin β4 (G-actin) | suppression of footpad swelling ([3]; 1000 ng dose) |
| --- | --- | --- | --- | --- | --- | --- | --- | --- | --- | --- | --- | --- |
| oxidised thymosin β4 [Tβ4so] | dispersive at low concentrations | neither was chemotactic | an order of magnitude more potent; also recorded: tenfold more inhibitory | both inhibited | promotes would healing | at least an order of magnitude higher potency | ineffective | ineffective | significantly reduced | significant suppression of swelling | 20 fold | – |
| thymosin β4 (SDKPDMAEIEKFDKSKLKKTETQEKNPLPSKETIEQEKQAGES; UniProt P62328 2-44, looked up) [Tβ4, native, non-oxidised thymosin β4 prepared from human neutrophils by HPLC, reference compound] | did not give significant dispersive locomotion | neither was chemotactic | – | both inhibited | promotes would healing | – | – | – | only the oxidised peptide significantly reduced | – | – | ineffective |
